{
  "source": "paper PMC12526004",
  "about": "“Tiliroside Suppresses Uric Acid Production in Hepatocytes and Attenuates Purine-Induced Hyperuricemia in Male ICR Mice” (Molecules, 2025)",
  "key": {"[1]": {"test_system": "mice with purine-induced hyperuricemia", "assay": "Hepatic UA level in hyperuricemic model mice", "assay_type": "in vivo, male ICR mice", "details": "three days; for Hepatic UA Level: mean ± SEM", "method": "(§1) The antihyperuricemic effect of tiliroside was evaluated using mice with purine-induced hyperuricemia, following a previously described procedure. […] The test compounds were suspended in 0.2 mL of 0.5% CMC-Na based on the average body weight of each group. The actual volume administered was adjusted according to the individual body weight of each mouse. Prior to each administration, the mice were fasted for four hours. The negative and hyperuricemic control groups received the vehicle (0.5% CMC-Na) alone. […] GMP and IMP were dissolved in 0.2 mL of PBS (–) based on the average body weight of all mice. The injection volume was similarly adjusted according to each mouse’s body weight. These injections were performed one hour after the final oral administration of the test compounds or vehicle. The negative control group received PBS (–) alone. […] The liver and kidneys were then excised. Blood samples were centrifuged at 5000× g for 10 min at 4 °C to obtain plasma, which was stored at −80 °C until analysis. Liver samples preparation was performed according to the methods previously described. Each portion of the liver tissue was processed for a specific analysis. One portion was homogenized in ice-cold 100 mM Tris-HCl buffer (pH 7.5), followed by sonication and centrifugation at 10,000× g for 5 min at 4 °C. The resulting supernatant was collected for the determination of UA levels. Another portion was treated similarly using Tris-HCl buffer containing 1 mM EDTA-2Na, and the supernatant was used to measure XO activity. The final portion was homogenized in ice-cold RIPA lysis buffer (Nacalai Tesque) and centrifuged under the same conditions, and the resulting supernatant was used for Western blot analysis. UA concentrations in plasma and liver homogenates were determined using the uricase-based Uric Acid C-Test Wako. Protein concentrations in the liver samples were measured with the Pierce™ BCA Protein Assay Kit. Liver UA levels were expressed as milligrams per gram of liver protein (mg/g protein)."}, "[2]": {"test_system": "mice with purine-induced hyperuricemia", "assay": "Plasma UA in mice with purine-induced hyperuricemia", "assay_type": "in vivo, male ICR mice", "details": "three days; for effect on plasma UA increase / effect on plasma UA levels: vs hyperuricemic control", "method": "as §1, with “analysis.” for “analysis. Liver samples preparation was performed according to the methods previously described. Each portion of the liver tissue was processed for a specific analysis. One portion was homogenized in ice-cold 100 mM Tris-HCl buffer (pH 7.5), followed by sonication and centrifugation at 10,000× g for 5 min at 4 °C. The resulting supernatant was collected for the determination of UA levels. Another portion was treated similarly using Tris-HCl buffer containing 1 mM EDTA-2Na, and the supernatant was used to measure XO activity. The final portion was homogenized in ice-cold RIPA lysis buffer (Nacalai Tesque) and centrifuged under the same conditions, and the resulting supernatant was used for Western blot analysis.”"}, "XO": {"test_system": "XO", "details": "read-out: IC50, XO inhibition (previous report); cited from earlier work"}, "ABCG2": {"test_system": "ABCG2", "assay": "Renal mRNA expression, real-time quantitative PCR", "assay_type": "in vivo, male ICR mice", "details": "300 mg/kg oral, three days", "method": "(§2) The antihyperuricemic effect of tiliroside was evaluated using mice with purine-induced hyperuricemia, following a previously described procedure. […] The test compounds were suspended in 0.2 mL of 0.5% CMC-Na based on the average body weight of each group. The actual volume administered was adjusted according to the individual body weight of each mouse. Prior to each administration, the mice were fasted for four hours. The negative and hyperuricemic control groups received the vehicle (0.5% CMC-Na) alone. […] GMP and IMP were dissolved in 0.2 mL of PBS (–) based on the average body weight of all mice. The injection volume was similarly adjusted according to each mouse’s body weight. These injections were performed one hour after the final oral administration of the test compounds or vehicle. The negative control group received PBS (–) alone. […] The liver and kidneys were then excised. Blood samples were centrifuged at 5000× g for 10 min at 4 °C to obtain plasma, which was stored at −80 °C until analysis. To assess renal gene expression, four mice per group were selected based on plasma UA levels approximating the group mean. Total RNA was extracted from kidney tissues of the negative control, hyperuricemic model, allopurinol-treated, and high-dose tiliroside-treated groups using the Trizol-chloroform method (Thermo Fisher Scientific). Reverse transcription was performed with 1 µg of RNA using iScript reverse transcriptase (Bio-Rad, Hercules, CA, USA). Quantitative PCR was conducted using the MyiQ2 real-time PCR system (Bio-Rad), with GAPDH as the reference gene."}, "GLUT9": {"test_system": "GLUT9", "assay": "Renal mRNA expression, real-time quantitative PCR", "assay_type": "in vivo, male ICR mice", "details": "300 mg/kg oral, three days", "method": "as §2"}, "ABCC4": {"test_system": "ABCC4", "assay": "Renal mRNA expression, real-time quantitative PCR", "assay_type": "in vivo, male ICR mice", "details": "300 mg/kg oral, three days", "method": "as §2"}, "AML12 hepatocytes": {"test_system": "AML12 hepatocytes", "assay": "Cell viability, WST-8 assay", "assay_type": "cell-based", "details": "concentrations up to 100 µM, 2 h", "method": "The viability of AML12 cells was determined using the WST-8 assay provided in the Cell Counting Kit-8 (Dojindo Laboratories, Kumamoto, Japan). Cells were initially seeded at 5 × 10^3 cells per well in 96-well plates and maintained in DMEM/F-12 medium containing 10% (v/v) FBS for 72 h. To induce serum deprivation, the medium was replaced with serum-free DMEM/F-12, and cells were incubated for an additional 24 h. […] The treatment lasted for 2 h. Subsequently, cells were washed again with BSS and incubated with the WST-8 reagent for 1 h. Absorbance was measured at 490 nm using a microplate reader (MTP-310Lab; CORONA […] Co., Ltd., […], Japan). Cell viability was normalized to the DMSO control (0 μM), which was set at 100%."}, "[3]": {"design": "method as in PMID 39830960", "details": "cited from earlier work"}, "hepatic XO": {"molecular_target": "T1, hepatic XO (Mus musculus, UniProt Q00519)", "T1 construct": "40 µL of liver homogenate was mixed with 30 µL of ice-cold 100 mM Tris-HCl buffer; from tissue; host or cells: liver of male ICR mice (homogenate supernatant)", "T1 sequence (Q00519 whole entry)": "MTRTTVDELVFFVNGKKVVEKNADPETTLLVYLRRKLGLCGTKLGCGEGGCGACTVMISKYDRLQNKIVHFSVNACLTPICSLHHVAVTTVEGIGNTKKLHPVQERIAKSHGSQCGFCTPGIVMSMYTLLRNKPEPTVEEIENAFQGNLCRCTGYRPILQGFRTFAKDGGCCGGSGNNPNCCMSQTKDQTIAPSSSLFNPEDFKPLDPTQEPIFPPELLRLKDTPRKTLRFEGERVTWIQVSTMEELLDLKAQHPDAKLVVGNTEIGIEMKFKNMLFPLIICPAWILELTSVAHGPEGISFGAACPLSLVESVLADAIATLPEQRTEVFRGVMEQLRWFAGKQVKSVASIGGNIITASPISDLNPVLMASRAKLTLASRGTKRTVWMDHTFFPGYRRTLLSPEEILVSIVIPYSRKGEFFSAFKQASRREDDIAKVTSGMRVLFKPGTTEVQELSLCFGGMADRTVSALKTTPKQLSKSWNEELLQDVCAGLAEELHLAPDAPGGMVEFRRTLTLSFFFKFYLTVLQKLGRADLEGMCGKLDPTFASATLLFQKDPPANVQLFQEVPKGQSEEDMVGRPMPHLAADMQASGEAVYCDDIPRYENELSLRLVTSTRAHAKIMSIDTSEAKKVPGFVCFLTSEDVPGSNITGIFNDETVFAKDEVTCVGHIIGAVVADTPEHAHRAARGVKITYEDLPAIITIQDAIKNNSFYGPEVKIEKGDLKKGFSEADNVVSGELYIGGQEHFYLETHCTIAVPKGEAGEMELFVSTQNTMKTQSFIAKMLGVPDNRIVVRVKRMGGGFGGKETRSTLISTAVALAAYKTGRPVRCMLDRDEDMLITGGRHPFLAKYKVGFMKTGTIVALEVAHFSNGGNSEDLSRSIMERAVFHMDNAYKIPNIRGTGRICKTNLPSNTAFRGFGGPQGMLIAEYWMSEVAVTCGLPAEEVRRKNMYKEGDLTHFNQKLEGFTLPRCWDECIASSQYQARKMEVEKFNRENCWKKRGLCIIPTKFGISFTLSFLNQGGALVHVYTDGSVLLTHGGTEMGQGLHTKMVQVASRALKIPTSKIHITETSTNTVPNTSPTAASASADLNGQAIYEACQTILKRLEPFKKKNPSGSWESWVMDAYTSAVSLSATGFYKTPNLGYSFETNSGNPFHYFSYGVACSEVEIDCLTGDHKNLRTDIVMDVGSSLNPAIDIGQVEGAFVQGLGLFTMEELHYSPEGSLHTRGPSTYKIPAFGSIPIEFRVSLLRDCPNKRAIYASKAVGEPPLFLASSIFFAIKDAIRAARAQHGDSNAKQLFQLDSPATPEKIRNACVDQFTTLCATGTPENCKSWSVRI", "assay": "Hepatic XO activity in hyperuricemic model mice", "assay_type": "in vivo, male ICR mice", "details": "three days, mean ± SEM", "quoted_text": "The test compounds were suspended in 0.2 mL of 0.5% CMC-Na based on the average body weight of each group. The actual volume administered was adjusted according to the individual body weight of each mouse. Prior to each administration, the mice were fasted for four hours. The negative and hyperuricemic control groups received the vehicle (0.5% CMC-Na) alone. On the third day of treatment, hyperuricemia was induced by intraperitoneal injection of guanosine monophosphate (GMP) and inosine monophosphate (IMP, both from Tokyo Chemical Industry, Tokyo, Japan), each at a dose of 300 mg/kg body weight, dissolved in PBS (–). GMP and IMP were dissolved in 0.2 mL of PBS (–) based on the average body weight of all mice. The injection volume was similarly adjusted according to each mouse’s body weight. These injections were performed one hour after the final oral administration of the test compounds or vehicle. The negative control group received PBS (–) alone. […] The liver and kidneys were then excised. Blood samples were centrifuged at 5000× g for 10 min at 4 °C to obtain plasma, which was stored at −80 °C until analysis.\nLiver samples preparation was performed according to the methods previously described [27]. Each portion of the liver tissue was processed for a specific analysis. One portion was homogenized in ice-cold 100 mM Tris-HCl buffer (pH 7.5), followed by sonication and centrifugation at 10,000× g for 5 min at 4 °C. […]\nHepatic XO activity was assessed using a previously reported method [28], with slight modifications to accommodate 96-well microplate measurements [33]. […] The enzymatic reaction was initiated by adding 180 µL of xanthine solution (150 µM in the same buffer), and the absorbance at 295 nm was monitored at 37 °C for 30 min using a Spark 10 M microplate reader. UA formation was quantified based on a standard curve generated with known concentrations of UA. Protein content in the homogenates was determined using the Pierce™ BCA Protein Assay Kit, and XO activity was expressed as micromoles of UA produced per minute per milligram of protein (µmol UA/min/mg protein)."}, "[4]": {"molecular_target": "xanthine oxidase (bovine milk-derived) (Bos taurus, UniProt P80457)", "sequence (P80457 whole entry)": "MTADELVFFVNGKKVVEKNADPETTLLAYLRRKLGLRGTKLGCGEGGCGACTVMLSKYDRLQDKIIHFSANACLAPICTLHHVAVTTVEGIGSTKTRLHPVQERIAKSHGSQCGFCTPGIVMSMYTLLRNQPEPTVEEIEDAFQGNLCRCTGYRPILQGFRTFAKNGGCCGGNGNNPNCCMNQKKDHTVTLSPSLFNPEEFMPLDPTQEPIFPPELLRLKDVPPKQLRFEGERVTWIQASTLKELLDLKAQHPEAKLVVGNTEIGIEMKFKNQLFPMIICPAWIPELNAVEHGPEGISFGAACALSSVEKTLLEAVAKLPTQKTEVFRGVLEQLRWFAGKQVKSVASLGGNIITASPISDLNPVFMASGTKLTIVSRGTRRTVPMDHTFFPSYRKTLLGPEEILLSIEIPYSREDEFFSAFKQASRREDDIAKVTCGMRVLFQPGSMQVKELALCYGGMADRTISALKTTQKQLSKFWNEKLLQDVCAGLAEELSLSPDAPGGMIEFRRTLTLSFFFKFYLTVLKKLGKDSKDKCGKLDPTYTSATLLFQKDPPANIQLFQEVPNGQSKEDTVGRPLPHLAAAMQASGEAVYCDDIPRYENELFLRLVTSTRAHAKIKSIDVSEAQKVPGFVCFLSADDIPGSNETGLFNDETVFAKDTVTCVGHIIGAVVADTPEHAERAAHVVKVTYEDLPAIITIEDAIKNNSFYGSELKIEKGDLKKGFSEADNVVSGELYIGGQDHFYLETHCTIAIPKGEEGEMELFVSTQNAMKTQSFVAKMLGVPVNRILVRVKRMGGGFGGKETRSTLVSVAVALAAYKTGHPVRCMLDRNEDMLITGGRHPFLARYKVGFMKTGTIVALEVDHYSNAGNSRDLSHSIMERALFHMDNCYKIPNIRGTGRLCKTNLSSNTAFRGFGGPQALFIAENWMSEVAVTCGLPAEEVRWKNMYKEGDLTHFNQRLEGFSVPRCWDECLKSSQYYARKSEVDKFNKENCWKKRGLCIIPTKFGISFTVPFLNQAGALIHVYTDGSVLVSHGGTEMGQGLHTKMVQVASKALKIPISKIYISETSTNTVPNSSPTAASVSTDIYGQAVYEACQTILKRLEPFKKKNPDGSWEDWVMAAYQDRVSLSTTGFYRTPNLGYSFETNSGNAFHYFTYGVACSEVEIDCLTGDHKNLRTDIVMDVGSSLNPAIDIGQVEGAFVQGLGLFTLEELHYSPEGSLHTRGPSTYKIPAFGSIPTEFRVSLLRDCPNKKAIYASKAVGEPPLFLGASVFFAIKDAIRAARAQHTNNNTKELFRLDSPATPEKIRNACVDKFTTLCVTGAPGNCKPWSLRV", "assay": "XO inhibition assay in vitro (UV absorbance at 295 nm)", "assay_type": "biochemical", "details": "xanthine substrate, 37 °C, mean of three independent experiments, read-out: IC50, direct XO inhibitory activity", "quoted_text": "Prior to the assay, the compounds were freshly dissolved in a mixture of 30% dimethyl sulfoxide (DMSO; FUJIFILM Wako) and 70% phosphate buffer (100 mM, pH 7.5) to prepare test solutions at final concentrations ranging from 0 to 100 µM. In each well of a 96-well microplate, 50 µL of the test solution was mixed with 60 µL of buffer and 30 µL of xanthine oxidase (7.8 mU/mL, bovine milk-derived; Sigma-Aldrich). After preincubation at 37 °C for 10 min, the reaction was initiated by adding 60 µL of xanthine substrate (150 µM; FUJIFILM Wako). Absorbance at 295 nm was monitored for 30 min at 37 °C using a Spark 10 M microplate reader (Tecan Group Ltd., Männedorf, Switzerland). XO inhibitory activity was expressed as percentage inhibition, calculated using the formula Inhibition (%) = 100 × [1 − (B/A)], where A and B represent the absorbance increase in the absence and presence of the test compound, respectively. All measurements were performed in triplicate.\nAll experimental data are presented as mean ± SEM. […] Data from the in vitro XO inhibition assay are shown as mean values from three independent experiments. IC50 values were calculated by nonlinear regression analysis using dose–response curves generated from at least six concentrations of each compound. All statistical analyses were performed using GraphPad Prism version 10 (GraphPad Software, San Diego, CA, USA)."}, "[5]": {"details": "300 mg/kg oral, hyperuricemic mice"}},
  "data": [
    {"smiles": "Oc1ncnc2[nH]ncc12", "note": "[Allopurinol, allopurinol, reference compound]", "values": [
      {"measurement": "Hepatic UA Level", "setting": "[1]; 10 mg/kg body weight oral", "value": "0.60 ± 0.03", "unit": "mg/g Protein"},
      {"measurement": "effect on plasma UA increase", "setting": "[2]; 10 mg/kg body weight oral", "value": "significantly reduced"}
    ]},
    {"smiles": "O=C(/C=C/c1ccc(O)cc1)OC[C@H]1O[C@@H](Oc2c(-c3ccc(O)cc3)oc3cc(O)cc(O)c3c2=O)[C@H](O)[C@@H](O)[C@@H]1O", "note": "[Tiliroside, kaempferol-3-O-(6′′-p-coumaroyl)-glucoside]", "values": [
      {"measurement": "IC50", "setting": "XO", "value": "> 100", "unit": "µM"},
      {"measurement": "renal ABCG2 mRNA expression", "setting": "ABCG2", "value": "did not affect"},
      {"measurement": "renal GLUT9 mRNA expression", "setting": "GLUT9", "value": "did not affect"},
      {"measurement": "renal ABCC4 mRNA expression", "setting": "ABCC4", "value": "did not affect"},
      {"measurement": "cytotoxic effects (cell viability)", "setting": "AML12 hepatocytes", "value": "did not exhibit any cytotoxic effects"},
      {"measurement": "toxicity and mutagenicity", "setting": "[3]", "value": "non-toxic and non-mutagenic"},
      {"measurement": "Hepatic XO Activity", "setting": "hepatic XO; 50 mg/kg oral", "value": "0.70 ± 0.08", "unit": "µmol UA/min/mg Protein"},
      {"measurement": "Hepatic XO Activity", "setting": "hepatic XO; 100 mg/kg oral", "value": "0.82 ± 0.06", "unit": "µmol UA/min/mg Protein"},
      {"measurement": "Hepatic XO Activity", "setting": "hepatic XO; 300 mg/kg oral", "value": "0.67 ± 0.07", "unit": "µmol UA/min/mg Protein"},
      {"measurement": "IC50", "setting": "[4]", "value": "> 100", "unit": "µM"},
      {"measurement": "Hepatic UA Level", "setting": "[1]; 50 mg/kg oral", "value": "1.30 ± 0.16", "unit": "mg/g Protein"},
      {"measurement": "Hepatic UA Level", "setting": "[1]; 100 mg/kg oral", "value": "1.13 ± 0.16", "unit": "mg/g Protein"},
      {"measurement": "lowering of hepatic UA level", "setting": "[1]; [5]", "value": "~55", "unit": "%"},
      {"measurement": "Hepatic UA Level", "setting": "[1]; 300 mg/kg oral", "value": "0.79 ± 0.11", "unit": "mg/g Protein"},
      {"measurement": "effect on plasma UA levels", "setting": "[2]; 50 mg/kg body weight oral", "value": "failed to produce a statistically significant reduction"},
      {"measurement": "effect on plasma UA levels", "setting": "[2]; 100 mg/kg body weight oral", "value": "failed to produce a statistically significant reduction"},
      {"measurement": "effect on plasma UA increase", "setting": "[2]; 300 mg/kg body weight oral", "value": "significantly reduced"},
      {"measurement": "lowering of plasma UA level", "setting": "[2]; [5]", "value": "approximately 30%"}
    ]}
  ]
}
